Data from publication PMC9501014, “Amaryllidaceae-Type Alkaloids from Pancratium maritimum: Apoptosis-Inducing Effect and Cell Cycle Arrest on Triple-Negative Breast Cancer Cells” (Molecules, 2022).
Where two headings read alike, the source gives them in different places.

How the values were obtained:
[1] = tested on: MDA-MB-231 cells; assay: Sulforhodamine B antiproliferative assay, MDA-MB-231; type: cell-based, human; conditions: for IC50: sulforhodamine B assay, 48 h of treatment, read-out: IC50 MDA-MDB-231 (A)
Procedure: (§1) The antiproliferative effect of the isolated compounds (1–11) was investigated by the sulforhodamine B assay against human triple-negative breast cancer cell lines (MDA-MB-468 and MDA-MB-231) and breast ductal carcinoma cells (MCF-7) and the non-tumorigenic fibroblast (HFF-1) and breast cell lines (MCF12A). The IC50 values were determined after 48 h of treatment (Table 1).
(§2) Human breast adenocarcinoma MDA-MB-231, MDA-MB-468, and MCF-7 cell lines and non-tumorigenic foreskin fibroblast (HFF-1) and breast (MCF12A) cell lines were purchased from American Type Culture Collection (ATCC, Rockville, MD, USA). All cancer cell lines, except MCF12A, were routinely cultured in RPMI-1640 medium with glutamine from Corning (VWR, Carnaxide, Portugal) supplemented with 10% fetal bovine serum (FBS) from Biowest (Labclinics, Barcelona, Spain). MCF12A cells were cultured in a 1:1 mixture of Dulbecco’s modified Eagle’s medium and Ham’s F12 medium, 20 ng/mL human epidermal growth factor, 100 ng/mL cholera toxin, 0.01 mg/mL bovine insulin, and 500 ng/mL hydrocortisone and supplemented with 10% FBS. All cells were maintained in a humidified incubator at 37 °C with 5% CO2. All cells were routinely tested for mycoplasma contamination using the MycoAlertTM PLUS detection kit (Lonza, Basel, Switzerland).
(§3) Human cell lines were seeded in 96-well plates at a density of 5.0 × 10^3 (MDA-MB-231, MCF-7, HFF-1, and MCF12A) and 7.5 × 10^3 (MDA-MB-468) cells/well and allowed to adhere for 24 h. Cells were treated with serial dilutions of compounds (ranging from 0.1 to 40 μM) for an additional 48 h. Effect on cell proliferation was measured by sulforhodamine B assay, as described in [33], and the half-maximal inhibitory concentration (IC50) was then determined for each cell line using the GraphPad Prism software version 7.0 (La Jolla, CA, USA).

[2] = tested on: MDA-MB-468 cells; assay: Sulforhodamine B antiproliferative assay, MDA-MB-468; type: cell-based, human
Procedure: as §1, §2, §3

[3] = tested on: MCF-7 cells; assay: Sulforhodamine B antiproliferative assay, MCF-7; type: cell-based, human
Procedure: as §1, §2, §3

[4] = tested on: MCF12A cells; assay: Sulforhodamine B antiproliferative assay, non-tumorigenic breast MCF12A; type: cell-based; conditions: Homo sapiens, MCF-12A, 48 h of treatment, read-out: IC50 MCF12A (D)
Procedure: as §1, §2, §3

[5] = tested on: HFF-1 cells; assay: Sulforhodamine B antiproliferative assay, non-tumorigenic fibroblast HFF-1; type: cell-based; conditions: Homo sapiens, 48 h of treatment, read-out: IC50 HFF-1 (E)
Procedure: as §1, §2, §3

[6] = tested on: MDA-MB-231 cells; assay: Annexin V-FITC apoptosis assay; type: cell-based, human; conditions: 16 µM, 48 h, vs vehicle control
Procedure: Figure 2 Compound 7 induced cell cycle arrest, apoptosis, and ROS production, in MDA-MB-231 cells. […] (B) Effect of 16 µM of compound 7 on cell cycle progression after 48 h of treatment in MDA-MB-231 cells; the percentage of cells in each phase of the cell cycle was analyzed by flow cytometry, using PI; data are mean ± SEM of three independent experiments. […] (C) Effect of 16 µM of compound 7 on apoptosis after 48 h of treatment; the percentage of Annexin-positive cells was analyzed by flow cytometry using PI and Annexin-V staining; data are mean ± SEM of three independent experiments. […] (D) Effect of 16 µM of compound 7 on mitochondrial ROS generation after 24 h of treatment; data are mean ± SEM of three independent experiments (* p < 0.05, unpaired Student’s t-test). […] (F) The graph represents the quantification of protein expression levels relative to DMSO; data are mean ± SD of three independent experiments. The ability of compound 7 to induce apoptosis in this cell line was also assessed by cytometry, using the Annexin V-FITC assay after 48 h of treatment. […]
The analyses were performed basically as described in [33]. […] The cells were then analyzed by flow cytometry, and cell cycle phases were identified and quantified using the FlowJo × 10.0.7 Software (Treestar, Ashland, OR, USA). […]

[7] = tested on: MDA-MB-231 cells; assay: Combination therapy with etoposide (SRB, CompuSyn), MDA-MB-231; type: cell-based, human
Procedure: The effect of 1.5 μM of compound 7 in combination with a range of concentrations of etoposide was evaluated after 48 h of treatment using CompuSyn software to calculate the combination index (CI) values for each combined treatment: CI < 1, synergy; 1 < CI < 1.1, additive effect; CI > 1.1, antagonism.
The effect of combined treatments on cell proliferation was analyzed by SRB assay. For each combination, the combination index (CI) values were calculated using the CompuSyn Software version 1.0; CI values < 1, 1 < CI < 1.1, and >1.1 indicate synergistic, additive, and antagonistic effects, respectively.

**Q.** How did the “effect of compound alone on cancer cell growth” value ([1]; 1.5 µM) turn out when `COc1cc2c(cc1O)C(=O)OC1[C@@H](O)C=C3CCN(C)C3[C@]21O` (stereo partly drawn) [Compound 7, 2α-10bα-dihydroxy-9-O-demethylhomolycorine] was run?
**A.** no significant effect on cancer cell growth

**Q.** And the IC50 ([1]; Homo sapiens, MDA-MB-231, 48 h)?
**A.** 8.02 µM

**Q.** What about the “SI E/A” value ([1]; selectivity index, HFF-1 vs MDA-MB-231) of the same compound?
**A.** 1.65

**Q.** And the “SI D/A” value ([1]; selectivity index, MCF12A vs MDA-MB-231)?
**A.** 0.69

**Q.** And the IC50 [1]?
**A.** 8 ± 1.68 µM

**Q.** What about the IC50 ([2]; Homo sapiens, MDA-MB-468, 48 h, sulforhodamine B assay, 48 h of treatment) of the same compound?
**A.** 16.3 ± 1.3 µM

**Q.** And the “SI E/B” value ([2]; selectivity index, HFF-1 vs MDA-MB-468)?
**A.** 0.81

**Q.** And the “SI D/B” value ([2]; selectivity index, MCF12A vs MDA-MB-468)?
**A.** 0.34

**Q.** And the IC50 ([3]; Homo sapiens, MCF7, 48 h, sulforhodamine B assay, 48 h of treatment, read-out: IC50 MCF-7 (C))?
**A.** 6.8 ± 0.2 µM

**Q.** And the “SI D/C” value ([3]; selectivity index, MCF12A vs MCF-7)?
**A.** 0.82

**Q.** What about the IC50 [4] of the same compound?
**A.** 5.6 ± 0.8 µM

**Q.** What about the IC50 [5] of the same compound?
**A.** 13.3 ± 3.28 µM

**Q.** And the “percentage of apoptotic (Annexin-positive) cells” value [6]?
**A.** significant increase in the percentage of apoptotic cells

**Q.** And the “Combination Index MDA-MB-231” value ([7]; 1.5 µM compound 7 + etoposide 0.4 µM, 48 h)?
**A.** 1.23

**Q.** And the “Combination Index MDA-MB-231” value ([7]; 1.5 µM compound 7 + etoposide 0.8 µM, 48 h)?
**A.** 0.87

**Q.** What about the “Combination Index MDA-MB-231” value ([7]; 1.5 µM compound 7 + etoposide 1.5 µM, 48 h) of the same compound?
**A.** 0.81

**Q.** And the “Combination Index MDA-MB-231” value ([7]; 1.5 µM compound 7 + etoposide 3 µM, 48 h)?
**A.** 0.86

**Q.** And the “type of interaction with etoposide, MDA-MB-231” value ([7]; 1.5 µM compound 7, etoposide 0.8, 1.5 and 3 µM)?
**A.** synergistic effects

**Q.** And the “effect on growth inhibitory effect of etoposide” value ([7]; 1.5 µM compound 7, etoposide 0.8, 1.5 and 3 µM, 48 h)?
**A.** significantly increased the growth inhibitory effect of etoposide
